Assays:
Type in all cases: cell-based, human
[1] = test system: differentiated cells at the end of stage 5; experiment: C-peptide secretion in response to glucose and insulin secretagogues (ELISA); conditions: 1 hr, versus 2.5 mM glucose without secretagogues; 30 mM KCl, 100 μM tolbutamide, 2 μM Bay K8644, 0.5 mM IBMX, 250 μM carbachol
Method: (§1) The differentiated cells at the end of stage 5 were initially incubated at 37° C. for 30 min with DMEM (Life Technologies) containing minimal essential medium, 2.5 mM glucose and 1% B27 Supplement Xeno-Free CTS. This initial incubation was regarded as washing. Subsequently, the medium was discarded and then the cells were incubated with DMEM (100 μl per well) containing 2.5 mM glucose at 37° for 1 hr. After collecting the supernatant, the same cells were further cultured for 1 hr in 20 mM glucose-containing DMEM or 2.5 mM glucose-containing DMEM supplemented with various stimulants, e.g., 2 μM (−)-Bay K8644 (Sigma-Aldrich), 100 μM tolbutamide (Wako), 250 μM carbachol (Sigma-Aldrich), 0.5 mM IBMX or 30 mM potassium chloride (KCl) (Wako). The supernatant was collected again and stored at −20° C. until analysis. Finally, the cells were lysed with 0.01% Triton X-100 in PBS containing 1% protease inhibitor cocktail (Nacalai Tesque). Intracellular C-peptide and protein levels were quantitatively determined. C-peptide level was measured using a human C-peptide ELISA kit (ALPCO Diagnostics) according to the manufacturer's instructions. The total protein in cell lysate was quantitatively determined using a Bio-Rad reagent kit (Bio-Rad). The amount of C-peptide was normalized against the corresponding amount of the total protein.

[2] = test system: endocrine progenitor cells; experiment: Stage 5 differentiation into endocrine cells, immunocytochemistry; conditions: for proportion of PDX1-positive/CP-negative cells / proportion of CP single-positive cells: end of stage 5; for proportion of CP single-positive cells: added to basal medium with exendin-4 and nicotinamide
Method: (§2) To this medium were added 50 ng/ml exendin-4 (Ex-4; Cell Sciences), 10 mM nicotinamide (NA; Sigma-Aldrich), and/or 100 μM 3-isobutyl-1-methylxanthine (IBMX; phosphodiesterase inhibitor; Wako), and/or 10 μM forskolin (FRKL; adenylate cyclase activator; Wako). The media were changed every two days.

[3] = test system: endocrine progenitor cells; experiment: Intracellular C-peptide content of cells differentiated at stage 5 (ELISA); conditions: differentiated cells at the end of stage 5
Method: as §2
as §1, with “The supernatant was collected again and stored at −20° C. until analysis. Finally, the cells were lysed with 0.01% Triton X-100 in PBS containing 1% protease inhibitor cocktail (Nacalai Tesque).” left out, “The amount of C-peptide was normalized against the corresponding amount of the total protein.” left out

[4] = test system: endocrine progenitor cells; experiment: Stage 5 differentiation into endocrine cells, quantitative RT-PCR
Method: as §2

PG cells [5] = experiment: Stage 3 differentiation into pancreatic progenitor cells, immunocytochemistry
From the text: (§3) The medium was changed every two days.

PG cells [6] = experiment: Stage 3 differentiation into pancreatic progenitor cells, quantitative RT-PCR; conditions: higher concentrations of NOGGIN at stage 3, versus Nog 100
From the text: as §3

[7] = 200 ng/ml NOGGIN in stage-3 media
[8] = 200 ng/ml NOGGIN in stage-3 media with RA, KAAD-cyclopamine, SB431542

## COC(=O)C1=C(C)NC(C)=C([N+](=O)[O-])C1c1ccccc1C(F)(F)F (single isomer, unassigned; (-)) [(−) BAY K8644]
[1]
  increase of C-peptide secretion: approximately 4.9 fold

## C=C[C@@]1(C)CC(=O)[C@]2(O)[C@@]3(C)[C@@H](O)CCC(C)(C)[C@@H]3[C@H](O)[C@H](OC(C)=O)[C@@]2(C)O1 [FRKL, forskolin]
[2]
  proportion of PDX1-positive/CP-negative cells: approximately 27%
  proportion of CP single-positive cells: 5.6-6.4%
[3]
  intracellular C-peptide contents: approximately 62 ng/mg protein

## CC(C)Cn1c(=O)n(C)c(=O)c2[nH]cnc21 [IBMX, 3-isobutyl-1-methylxanthine]
[4]; IBMX-induced cells versus FRKL-induced cells
  expression levels of β-cell specific genes: relatively higher
[4]; added to basal medium (DMEM/F12, 1% B27, exendin-4 and nicotinamide) at stage 5, versus DMSO
  INS expression: significantly upregulated
[4]; end of stage 5, versus DMSO-induced cells
  expression levels of β-cell maturity genes (PDX1, NKX6.1, MAF-A, ISL-1, UCN3, GCK, IAPP, SLC30A8): remarkably higher
[1]
  increase of C-peptide secretion: approximately 4.9 fold
[2]
  proportion of PDX1-positive/CP-negative cells: approximately 22%
  proportion of CP single-positive cells: 6.5-6.7%
[3]
  intracellular C-peptide contents: approximately 66 ng/mg protein

## [Cl-].[K+] [KCl, potassium chloride]
[1]
  increase of C-peptide secretion: approximately 8.3 fold

## C[N+](C)(C)CCOC(N)=O [carbachol]
[1]
  increase of C-peptide secretion: approximately 7.0 fold

## CCCCNC(=O)NS(=O)(=O)c1ccc(C)cc1 [tolbutamide]
[1]
  increase of C-peptide secretion: approximately 3.0 fold

B1: NOGGIN: recombinant human NOGGIN, BMP signaling inhibitor (R&D Systems) (protein, UniProt Q13253 28-232, looked up)
Noggin: QHYLHIRPAPSDNLPLVDLIEHPDPIFDPKEKDLNETLLRSLLGGHYDPGFMATSPPEDRPGGGGGAAGGAEDLAELDQLLRQRPSGAMPSEIKGLEFSEGLAQGKKQRLSKKLRRKLQMWLWSQTFCPVLYAWNDLGSRFWPRYVKVGSCFSKRSCSVPEGMVCKPSKSVHLTVLRWRCQRRGGQRCGWIPIQYPIISECKCSC
[2]; NOGGIN at 200 ng/ml compared to 100 ng/ml at stages 3 and 4
  proportion of EC cells: higher proportion
PG cells [5]; 100 ng/ml NOGGIN at stage 3
  AFP-positive hepatic cells and CDX2-positive intestinal progenitor cells appearing: considerable proportion
PG cells [5]; [7]
  AFP-positive cells in the total DAPI-positive cells: 4%
  CDX2-positive cells in the total DAPI-positive cells: 8%
PG cells [5]; [8]
  PDX1-positive cells co-expressing HNF-6: about 62%
  PDX1-positive cells co-expressing SOX9: about 59%
PG cells [5]; 200-300 ng/ml NOGGIN at stage 3, versus 100 ng/ml
  numbers of AFP-positive hepatic cells and CDX2-positive intestinal progenitor cells: remarkably reduced
PG cells [6]
  expression level of early-stage pancreatic dorsal bud gene HLXB9: remarkably upregulated
  expression levels of PDX-1 and posterior foregut genes HNF6 and NKX6.1: remarkably upregulated
  gene expression levels of CDX2 and AFP: remarkably reduced
